# Experiment: attempt to prepare 0.2 mol/L aqueous solution of Mn(II) complex (deposition of manganese compound)
# Type: physicochemical
# Conditions: target concentration 0.2 mol/L, metal:ligand 1:1, pH 7, with Na2SO4
# Description: Accordingly, it was known that if malonic acid as a polycarboxylic acid is used instead of polyethyleneimine, it is impossible to prepare a cathode electrolyte containing a Mn(II) complex in a sufficient concentration.
# Accordingly, it was known that if succinic acid as a polycarboxylic acid is used instead of polyethyleneimine, it is impossible to prepare a cathode electrolyte containing a Mn(II) complex at a sufficient concentration.
# Accordingly, it was known that if ethylenediamine is used instead of polyethyleneimine, it is impossible to prepare a cathode electrolyte containing a Mn(II) complex at a sufficient concentration.
# Meanwhile, the cathode electrolyte was prepared as follows. Firstly, 0.1 mol (6.0 g) of ethylenediamine was added to and dissolved in 70 ml of distilled water.
substance,measurement,value
Mn(II)-malonic acid complex,deposition of manganese compound on preparing aqueous solution,manganese compound is immediately deposited

# From US9577283B2, “Energy storage battery” (NISSIN ELECTRIC CO., LTD., priority 2012, dated 2017)
